Experimental data reported in PMC10412597, “Small molecule branched-chain ketoacid dehydrogenase kinase (BDK) inhibitors with opposing effects on BDK protein levels” (Nature Communications, 2023).

Columns and labels:
Parameters in all cases: Cerep Bioprint off-target panel, functional receptor agonism or antagonism
Adenosine A2a Receptor = target: T1, Adenosine A2a Receptor (Homo sapiens, UniProt P29274); details: agonist
T1 construct: gene ADORA2A
Description: (§1) To discover a potent and selective BDK inhibitor, a subset of the Pfizer compound collection was screened. […] Off target activity was assessed in both CEREP and kinase panels (Supplementary Tables 2, 3).

[1] = target: T2, Adrenergic Alpha 2a receptor (Homo sapiens, UniProt P08913); details: agonist
T2 construct: gene ADRA2A
Description: as §1

[2] = target: T3, Adrenergic Alpha 2b Adrenoceptor (Homo sapiens, UniProt P18089)
T3 construct: gene ADRA2B
T3 sequence (P18089 1-450): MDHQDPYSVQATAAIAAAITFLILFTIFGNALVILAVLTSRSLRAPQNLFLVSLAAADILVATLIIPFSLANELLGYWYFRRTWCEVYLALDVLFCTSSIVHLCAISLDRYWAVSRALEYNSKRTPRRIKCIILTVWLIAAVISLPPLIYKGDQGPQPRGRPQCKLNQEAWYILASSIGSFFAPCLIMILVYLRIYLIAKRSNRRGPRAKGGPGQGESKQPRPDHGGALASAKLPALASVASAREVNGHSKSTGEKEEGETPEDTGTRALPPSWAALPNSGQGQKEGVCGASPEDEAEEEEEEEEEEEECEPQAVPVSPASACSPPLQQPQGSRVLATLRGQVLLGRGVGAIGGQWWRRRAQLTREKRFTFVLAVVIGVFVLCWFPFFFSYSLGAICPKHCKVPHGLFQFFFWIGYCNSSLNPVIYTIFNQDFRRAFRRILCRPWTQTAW
Description: as §1

Cholecystokinin 2 = target: T4, Cholecystokinin 2 (Homo sapiens, UniProt P32239); details: agonist
T4 construct: gene CCKBR
Description: as §1

[3] = target: T5, Corticotrophin Releasing Factor 1 (CRF1) Receptor (Homo sapiens, UniProt P34998)
T5 construct: gene CRHR1
T5 sequence (P34998 1-415): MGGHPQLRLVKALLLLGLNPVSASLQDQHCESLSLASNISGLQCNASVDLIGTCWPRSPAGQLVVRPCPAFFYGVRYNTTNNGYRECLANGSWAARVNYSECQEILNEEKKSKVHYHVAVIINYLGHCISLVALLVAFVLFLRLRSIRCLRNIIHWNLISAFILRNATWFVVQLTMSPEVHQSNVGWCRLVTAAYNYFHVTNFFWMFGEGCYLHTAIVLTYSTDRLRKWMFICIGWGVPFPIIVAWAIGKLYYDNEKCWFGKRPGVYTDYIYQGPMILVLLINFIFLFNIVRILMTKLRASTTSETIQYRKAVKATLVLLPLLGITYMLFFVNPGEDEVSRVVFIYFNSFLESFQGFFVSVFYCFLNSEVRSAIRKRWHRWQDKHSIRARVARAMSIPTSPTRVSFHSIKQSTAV
Description: as §1

Endothelin A = target: T6, Endothelin A (Homo sapiens, UniProt P25101); details: agonist
T6 construct: gene EDNRA
Description: as §1

Histamine H3 = target: T7, Histamine H3 (Homo sapiens, UniProt Q9Y5N1); details: agonist
T7 construct: gene HRH3
Description: as §1

[4] = target: T8, Melanocortin MC2 Receptor (Homo sapiens, UniProt Q01718)
T8 construct: gene MC2R
Description: as §1

Mu Opioid = target: T9, Mu Opioid (Homo sapiens, UniProt P35372); details: agonist
T9 construct: gene OPRM1
Description: as §1

Muscarinic 1 = target: T10, Muscarinic 1 (Homo sapiens, UniProt P11229)
T10 construct: gene CHRM1
T10 sequence (P11229 1-460): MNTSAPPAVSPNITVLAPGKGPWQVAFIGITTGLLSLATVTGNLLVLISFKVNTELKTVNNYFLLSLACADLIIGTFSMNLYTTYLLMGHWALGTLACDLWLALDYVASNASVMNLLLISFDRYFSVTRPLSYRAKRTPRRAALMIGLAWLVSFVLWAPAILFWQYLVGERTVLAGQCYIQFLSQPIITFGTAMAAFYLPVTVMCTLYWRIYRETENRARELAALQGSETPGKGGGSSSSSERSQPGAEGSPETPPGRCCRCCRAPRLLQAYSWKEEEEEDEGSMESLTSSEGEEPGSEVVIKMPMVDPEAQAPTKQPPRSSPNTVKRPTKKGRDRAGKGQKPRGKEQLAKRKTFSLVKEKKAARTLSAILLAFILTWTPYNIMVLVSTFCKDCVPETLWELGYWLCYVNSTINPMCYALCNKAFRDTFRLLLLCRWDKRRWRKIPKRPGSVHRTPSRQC
Description: as §1

Serotonin 5-HT4e = target: T11, Serotonin 5-HT4e (Homo sapiens, UniProt Q13639); details: agonist
T11 construct: gene HTR4; isoform 4e
Description: as §1

T8 sequence (Q01718 whole entry): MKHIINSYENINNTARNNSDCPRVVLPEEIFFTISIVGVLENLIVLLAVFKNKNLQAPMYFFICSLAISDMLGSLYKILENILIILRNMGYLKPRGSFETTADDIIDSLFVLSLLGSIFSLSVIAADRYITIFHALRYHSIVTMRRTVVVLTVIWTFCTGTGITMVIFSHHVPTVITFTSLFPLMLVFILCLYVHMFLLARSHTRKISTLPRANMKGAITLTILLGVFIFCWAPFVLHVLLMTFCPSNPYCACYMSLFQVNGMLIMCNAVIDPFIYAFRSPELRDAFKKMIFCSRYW
T11 sequence (Q13639 whole entry, canonical isoform): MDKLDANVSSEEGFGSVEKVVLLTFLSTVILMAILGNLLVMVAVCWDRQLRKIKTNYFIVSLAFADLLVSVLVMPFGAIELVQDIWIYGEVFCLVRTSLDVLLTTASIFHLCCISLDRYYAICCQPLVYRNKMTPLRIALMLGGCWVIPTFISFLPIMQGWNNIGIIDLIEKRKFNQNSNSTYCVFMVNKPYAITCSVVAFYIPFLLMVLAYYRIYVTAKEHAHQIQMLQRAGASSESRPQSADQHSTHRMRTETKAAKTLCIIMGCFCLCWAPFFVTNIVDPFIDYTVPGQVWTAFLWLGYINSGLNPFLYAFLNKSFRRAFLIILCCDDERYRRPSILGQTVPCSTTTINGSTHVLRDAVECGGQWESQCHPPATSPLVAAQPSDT
T4 sequence (P32239 whole entry): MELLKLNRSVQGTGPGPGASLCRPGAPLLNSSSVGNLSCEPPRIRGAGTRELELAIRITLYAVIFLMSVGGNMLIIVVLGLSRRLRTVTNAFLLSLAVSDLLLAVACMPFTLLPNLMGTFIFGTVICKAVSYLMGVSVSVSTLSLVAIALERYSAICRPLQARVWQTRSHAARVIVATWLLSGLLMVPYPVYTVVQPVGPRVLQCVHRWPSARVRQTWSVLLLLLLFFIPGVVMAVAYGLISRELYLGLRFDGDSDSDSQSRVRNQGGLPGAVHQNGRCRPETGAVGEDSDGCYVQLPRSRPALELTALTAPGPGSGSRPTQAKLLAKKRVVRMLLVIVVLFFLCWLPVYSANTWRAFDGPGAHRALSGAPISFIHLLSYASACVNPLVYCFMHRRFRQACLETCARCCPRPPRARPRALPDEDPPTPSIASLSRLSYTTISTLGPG
T1 sequence (P29274 whole entry): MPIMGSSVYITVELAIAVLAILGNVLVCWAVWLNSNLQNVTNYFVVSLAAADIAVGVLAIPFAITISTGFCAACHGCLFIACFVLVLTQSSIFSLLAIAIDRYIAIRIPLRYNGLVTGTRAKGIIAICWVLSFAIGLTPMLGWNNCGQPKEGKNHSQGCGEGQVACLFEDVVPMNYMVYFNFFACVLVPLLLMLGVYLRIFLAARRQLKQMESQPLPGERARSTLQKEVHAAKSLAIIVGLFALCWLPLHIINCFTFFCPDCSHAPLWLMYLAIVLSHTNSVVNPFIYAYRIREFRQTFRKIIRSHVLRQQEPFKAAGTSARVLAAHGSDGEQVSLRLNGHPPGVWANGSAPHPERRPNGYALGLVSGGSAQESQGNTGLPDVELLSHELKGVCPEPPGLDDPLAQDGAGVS
T7 sequence (Q9Y5N1 whole entry): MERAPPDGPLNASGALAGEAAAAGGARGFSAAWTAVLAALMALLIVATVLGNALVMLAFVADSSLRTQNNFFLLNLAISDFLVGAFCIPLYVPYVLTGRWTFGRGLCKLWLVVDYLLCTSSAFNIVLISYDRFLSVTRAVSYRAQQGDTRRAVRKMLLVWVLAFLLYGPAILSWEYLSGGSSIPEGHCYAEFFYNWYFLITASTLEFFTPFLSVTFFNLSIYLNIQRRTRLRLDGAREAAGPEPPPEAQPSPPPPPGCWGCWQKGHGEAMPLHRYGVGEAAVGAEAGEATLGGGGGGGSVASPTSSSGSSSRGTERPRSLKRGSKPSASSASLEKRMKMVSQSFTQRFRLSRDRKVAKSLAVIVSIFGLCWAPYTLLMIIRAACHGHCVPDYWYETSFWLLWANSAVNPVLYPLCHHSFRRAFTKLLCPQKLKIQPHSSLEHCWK
T6 sequence (P25101 whole entry): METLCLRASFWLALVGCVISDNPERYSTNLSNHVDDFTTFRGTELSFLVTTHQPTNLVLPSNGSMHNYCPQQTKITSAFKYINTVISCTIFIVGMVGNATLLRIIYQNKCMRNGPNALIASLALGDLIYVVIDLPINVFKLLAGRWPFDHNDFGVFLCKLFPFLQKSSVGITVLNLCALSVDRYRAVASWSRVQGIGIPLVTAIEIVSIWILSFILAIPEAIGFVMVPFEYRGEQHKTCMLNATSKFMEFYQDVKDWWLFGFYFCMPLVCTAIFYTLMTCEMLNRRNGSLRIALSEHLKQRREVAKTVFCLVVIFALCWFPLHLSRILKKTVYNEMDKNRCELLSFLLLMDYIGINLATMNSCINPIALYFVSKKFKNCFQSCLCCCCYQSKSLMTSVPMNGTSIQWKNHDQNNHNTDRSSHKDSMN
T9 sequence (P35372 whole entry): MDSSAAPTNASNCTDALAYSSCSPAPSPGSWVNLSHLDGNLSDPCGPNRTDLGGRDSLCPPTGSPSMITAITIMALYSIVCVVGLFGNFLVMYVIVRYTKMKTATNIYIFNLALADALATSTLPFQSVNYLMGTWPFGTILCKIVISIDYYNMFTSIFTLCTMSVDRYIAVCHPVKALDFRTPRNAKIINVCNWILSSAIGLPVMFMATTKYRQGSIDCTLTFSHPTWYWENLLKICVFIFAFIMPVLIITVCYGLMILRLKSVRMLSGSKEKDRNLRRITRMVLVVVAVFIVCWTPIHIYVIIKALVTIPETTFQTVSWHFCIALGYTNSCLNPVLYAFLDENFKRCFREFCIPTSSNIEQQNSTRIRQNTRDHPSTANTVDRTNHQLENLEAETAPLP
T2 sequence (P08913 whole entry): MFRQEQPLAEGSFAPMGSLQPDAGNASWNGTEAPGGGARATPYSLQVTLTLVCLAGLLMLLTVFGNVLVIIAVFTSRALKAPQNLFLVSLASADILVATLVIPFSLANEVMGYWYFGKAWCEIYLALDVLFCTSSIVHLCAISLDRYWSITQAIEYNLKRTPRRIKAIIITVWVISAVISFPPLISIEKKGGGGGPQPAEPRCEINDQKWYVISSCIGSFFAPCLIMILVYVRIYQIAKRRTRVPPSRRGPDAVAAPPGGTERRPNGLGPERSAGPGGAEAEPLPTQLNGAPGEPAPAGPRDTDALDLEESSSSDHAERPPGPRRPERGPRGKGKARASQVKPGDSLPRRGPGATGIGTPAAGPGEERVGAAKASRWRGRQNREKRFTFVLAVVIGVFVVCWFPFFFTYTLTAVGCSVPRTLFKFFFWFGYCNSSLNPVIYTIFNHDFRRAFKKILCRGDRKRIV

O=C(O)c1sc2cc(F)sc2c1Cl [PF-07208254, 3-chloro-5-fluorothieno[3,2-b]thiophene-2-carboxylic acid]
% (agonism) PF-07208254 (Adenosine A2a Receptor; 100 µM): 0% | % (agonism) PF-07208254 ([1]; 100 µM): -1% | % (agonism) PF-07208254 ([2]; 100 µM, agonist): -4% | % Inhibition (antagonism) PF-07208254 ([2]; 100 µM, antagonist): -2% | % (agonism) PF-07208254 (Cholecystokinin 2; 100 µM): 0% | % (agonism) PF-07208254 ([3]; 100 µM, agonist): -2% | % Inhibition (antagonism) PF-07208254 ([3]; 100 µM, antagonist): 39% | % (agonism) PF-07208254 (Endothelin A; 100 µM): 4% | % (agonism) PF-07208254 (Histamine H3; 100 µM): 15% | % (agonism) PF-07208254 ([4]; 100 µM, agonist): 0% | % Inhibition (antagonism) PF-07208254 ([4]; 100 µM, antagonist): -4% | % (agonism) PF-07208254 (Mu Opioid; 100 µM): 16% | % (agonism) PF-07208254 (Muscarinic 1; 100 µM, agonist): -1% | % Inhibition (antagonism) PF-07208254 (Muscarinic 1; 100 µM, antagonist): 0% | % (agonism) PF-07208254 (Serotonin 5-HT4e; 100 µM): 6%

CCC1(COc2ccc(-c3csc(-c4ccccc4C(=O)O)n3)cn2)CC1 [PF-07247685, 2-(4-{6-[(1-ethylcyclopropyl)methoxy]pyridin-3-yl}-1,3-thiazol-2-yl)benzoic acid]
% (agonism) PF-07247685 (Adenosine A2a Receptor; 10 µM): 1% | % (agonism) PF-07247685 ([1]; 10 µM): 0% | % (agonism) PF-07247685 ([2]; 10 µM, agonist): -1% | % Inhibition (antagonism) PF-07247685 ([2]; 10 µM, antagonist): -1% | % (agonism) PF-07247685 (Cholecystokinin 2; 10 µM): -8% | % (agonism) PF-07247685 ([3]; 10 µM, agonist): 4% | % Inhibition (antagonism) PF-07247685 ([3]; 10 µM, antagonist): 11% | % (agonism) PF-07247685 (Endothelin A; 10 µM): -4% | % (agonism) PF-07247685 (Histamine H3; 10 µM): 4% | % (agonism) PF-07247685 ([4]; 10 µM, agonist): 0% | % Inhibition (antagonism) PF-07247685 ([4]; 10 µM, antagonist): 18% | % (agonism) PF-07247685 (Mu Opioid; 10 µM): -3% | % (agonism) PF-07247685 (Muscarinic 1; 10 µM, agonist): 1% | % Inhibition (antagonism) PF-07247685 (Muscarinic 1; 10 µM, antagonist): 9% | % (agonism) PF-07247685 (Serotonin 5-HT4e; 10 µM): 0%
